Reference: US20210009564A1, “CALPAIN MODULATORS AND THERAPEUTIC USES THEREOF” (BLADE THERAPERTICS, INC., priority 2018, published 2021)

Tests used:
[1] = system: Calpain activity in SH-SY5Y cells; experiment: SH-SY5Y spectrin breakdown product (SBDP-150) western blot assay; assay type: cell-based; conditions: Homo sapiens; SH-SY5Y cells, 25 uM A23187, SBDP-150 western blot; read-out: SH-SY5Y Spectrin IC50
Human Calpain 2/NS1 = target: T1, Human Calpain 2/NS1 (Homo sapiens, UniProt P17655); experiment: Calpain inhibition, continuous fluorescence (FRET substrate) assay, calpain 2; assay type: biochemical; conditions: SensoLyte 520 FRET substrate, 25C
T1 sequence (P17655 1-700): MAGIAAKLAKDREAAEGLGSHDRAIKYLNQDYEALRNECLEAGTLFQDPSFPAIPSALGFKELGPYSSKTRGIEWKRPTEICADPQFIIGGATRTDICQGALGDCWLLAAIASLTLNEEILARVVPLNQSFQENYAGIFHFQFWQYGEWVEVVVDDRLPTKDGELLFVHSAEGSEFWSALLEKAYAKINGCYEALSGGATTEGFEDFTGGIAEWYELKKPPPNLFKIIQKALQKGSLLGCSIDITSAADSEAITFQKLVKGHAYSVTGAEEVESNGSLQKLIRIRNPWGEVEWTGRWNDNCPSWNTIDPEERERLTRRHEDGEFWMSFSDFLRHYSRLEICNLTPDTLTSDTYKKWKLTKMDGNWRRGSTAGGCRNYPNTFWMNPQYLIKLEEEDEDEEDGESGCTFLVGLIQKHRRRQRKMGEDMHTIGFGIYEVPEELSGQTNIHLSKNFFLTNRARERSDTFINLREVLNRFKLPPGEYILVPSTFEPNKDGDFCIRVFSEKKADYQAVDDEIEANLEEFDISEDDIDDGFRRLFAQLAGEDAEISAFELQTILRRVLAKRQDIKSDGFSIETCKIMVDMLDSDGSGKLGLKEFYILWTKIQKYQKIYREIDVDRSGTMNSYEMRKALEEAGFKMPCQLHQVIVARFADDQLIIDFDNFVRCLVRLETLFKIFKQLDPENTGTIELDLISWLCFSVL
T1 sequence (P04632 1-268 partner): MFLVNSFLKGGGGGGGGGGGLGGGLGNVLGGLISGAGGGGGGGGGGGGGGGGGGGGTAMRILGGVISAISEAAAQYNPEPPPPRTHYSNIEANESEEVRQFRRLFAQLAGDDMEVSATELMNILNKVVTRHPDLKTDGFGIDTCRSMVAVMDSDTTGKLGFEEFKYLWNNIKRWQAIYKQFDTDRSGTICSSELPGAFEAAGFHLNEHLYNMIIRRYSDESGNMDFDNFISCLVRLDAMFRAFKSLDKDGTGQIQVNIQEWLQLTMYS
In short: (§1)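 Continuous FRET read-out (ex 490/em 520 nm) of 5-FAM/QXL 520 substrate cleavage, started by adding substrate with CaCl2 for in-situ activation after enzyme–inhibitor preincubation at 25 °C. Buffer was Tris 50 mM pH 7.5, NaCl 100 mM, DTT 1 mM. IC50 fitted (4-parameter) from rates over 1-5 min.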

Human Calpain 9/NS1 = target: T2, Human Calpain 9/NS1 (Homo sapiens, UniProt O14815); experiment: Calpain inhibition, continuous fluorescence (FRET substrate) assay, calpain 9; assay type: biochemical; conditions: SensoLyte 520 FRET substrate, 25C
T2 sequence (O14815 1-690): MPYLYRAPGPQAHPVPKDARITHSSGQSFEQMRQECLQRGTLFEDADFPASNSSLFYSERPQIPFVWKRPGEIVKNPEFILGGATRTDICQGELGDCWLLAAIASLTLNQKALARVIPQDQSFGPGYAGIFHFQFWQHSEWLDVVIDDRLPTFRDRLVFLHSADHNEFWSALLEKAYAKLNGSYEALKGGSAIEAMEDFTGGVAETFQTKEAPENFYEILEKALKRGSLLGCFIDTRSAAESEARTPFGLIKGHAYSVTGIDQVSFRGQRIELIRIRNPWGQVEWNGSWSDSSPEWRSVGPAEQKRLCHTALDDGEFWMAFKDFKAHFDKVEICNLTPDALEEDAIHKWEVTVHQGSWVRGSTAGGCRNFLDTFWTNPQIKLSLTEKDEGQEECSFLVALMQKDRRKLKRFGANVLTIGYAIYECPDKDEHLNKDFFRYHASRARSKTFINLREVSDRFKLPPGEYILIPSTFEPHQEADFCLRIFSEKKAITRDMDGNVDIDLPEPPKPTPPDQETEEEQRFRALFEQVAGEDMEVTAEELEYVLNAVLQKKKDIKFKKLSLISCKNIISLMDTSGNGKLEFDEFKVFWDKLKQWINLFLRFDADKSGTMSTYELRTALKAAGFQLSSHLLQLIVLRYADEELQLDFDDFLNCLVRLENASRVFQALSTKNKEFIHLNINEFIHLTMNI
T2 sequence (P04632 1-268 partner): T1 sequence (P04632 1-268 partner)
In short: as §1

Human Calpain 1/NS1 = target: T3, Human Calpain 1/NS1 (Homo sapiens, UniProt P07384); experiment: Calpain inhibition, continuous fluorescence (FRET substrate) assay, calpain 1; assay type: biochemical; conditions: SensoLyte 520 FRET substrate, 25C
T3 sequence (P07384 1-714): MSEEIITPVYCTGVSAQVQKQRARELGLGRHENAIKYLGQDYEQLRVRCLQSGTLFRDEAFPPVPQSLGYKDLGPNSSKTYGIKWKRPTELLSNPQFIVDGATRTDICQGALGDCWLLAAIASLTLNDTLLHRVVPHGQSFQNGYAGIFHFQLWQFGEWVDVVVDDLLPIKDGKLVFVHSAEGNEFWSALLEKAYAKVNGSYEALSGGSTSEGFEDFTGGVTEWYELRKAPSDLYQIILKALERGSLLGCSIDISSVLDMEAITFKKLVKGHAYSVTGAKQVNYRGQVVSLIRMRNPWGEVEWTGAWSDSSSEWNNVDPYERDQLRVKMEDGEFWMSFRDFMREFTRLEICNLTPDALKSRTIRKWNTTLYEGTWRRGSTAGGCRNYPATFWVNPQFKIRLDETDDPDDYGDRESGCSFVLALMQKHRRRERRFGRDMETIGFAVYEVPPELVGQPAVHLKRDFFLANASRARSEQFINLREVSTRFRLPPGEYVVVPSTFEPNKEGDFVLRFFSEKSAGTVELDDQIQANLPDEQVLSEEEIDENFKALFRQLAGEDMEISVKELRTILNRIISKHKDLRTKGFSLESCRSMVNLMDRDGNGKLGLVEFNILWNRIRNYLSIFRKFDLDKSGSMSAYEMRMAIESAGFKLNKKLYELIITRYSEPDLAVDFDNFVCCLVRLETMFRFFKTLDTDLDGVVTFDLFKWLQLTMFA
T3 sequence (P04632 1-268 partner): T1 sequence (P04632 1-268 partner)
In short: as §1

[2] = system: Calpain activity in SH-SY5Y cells; experiment: SH-SY5Y Suc-LLVY-AMC fluorescence assay; assay type: cell-based; conditions: Homo sapiens; SH-SY5Y cells, 100 uM Suc-LLVY-AMC; read-out: SH-SY5Y + AMC IC50

Compound | IC50 [1] | IC50 (Human Calpain 2/NS1) | IC50 (Human Calpain 9/NS1) | IC50 (Human Calpain 1/NS1) | IC50 [2]
NC(=O)C(=O)C(Cc1ccccc1)NC(=O)c1cn(C(F)F)nc1-c1cccc2ncsc12 (centres unmarked) [Compound 7, N-(4-AMINO-3,4-DIOXO-1-PHENYLBUTAN-2-YL)-3-(BENZO[D]THIAZOL-7-YL)-1-(DIFLUOROMETHYL)-1H-PYRAZOLE-4-CARBOXAMIDE] | < 10 µM | < 3 µM | < 3 µM | < 3 µM | < 10 µM
Cc1nc(-c2ccccc2F)c(C(=O)NC(Cc2ccccc2Cl)C(=O)C(N)=O)o1 (centres unmarked) [Compound 83, N-(4-AMINO-1-(2-CHLOROPHENYL)-3,4-DIOXOBUTAN-2-YL)-4-(2-FLUOROPHENYL)-2-METHYLOXAZOLE-5-CARBOXAMIDE] | > 25 µM | < 3 µM | < 3 µM | < 3 µM | < 10 µM
Cc1nc(-c2cc(Cl)oc2Cl)c(C(=O)NC(Cc2ccccc2)C(=O)C(N)=O)o1 (centres unmarked) [Compound 81, N-(4-AMINO-3,4-DIOXO-1-PHENYLBUTAN-2-YL)-4-(2,5-DICHLOROFURAN-3-YL)-2-METHYLOXAZOLE-5-CARBOXAMIDE] | 10 to 25 µM | < 3 µM | < 3 µM | < 3 µM | < 10 µM
Cc1cc(-c2nn(C)cc2C(=O)NC(Cc2ccccc2)C(=O)C(N)=O)c(C)o1 (centres unmarked) [Compound 55, N-(4-AMINO-3,4-DIOXO-1-PHENYLBUTAN-2-YL-3-(2,5-DIMETHYLFURAN-3-YL)-1-METHYL-1H-PYRAZOLE-4-CARBOXAMIDE] | > 25 µM | < 3 µM | < 3 µM | < 3 µM | < 10 µM
O=C(NC(Cc1ccccc1)C(=O)c1nc[nH]n1)c1nsnc1-c1ccccc1 (centres unmarked) [Compound 104, N-(1-OXO-3-PHENYL-1-(H-1,2,4-TRIAZOL-3-YL)PROPAN-2-YL)-4-PHENYL-1,2,5-THIADIAZOLE-3-CARBOXAMIDE] | > 25 µM | > 10 µM | > 10 µM | > 10 µM | > 25 µM
N#CC(Cc1ccccc1)NC(=O)c1nsnc1-c1ccccc1 (centres unmarked) [Compound 82, N-(1-CYANO-2-PHENYLETHYL)-4-PHENYL-1,2,5-THIADIAZOLE-3-CARBOXAMIDE] | > 25 µM | > 10 µM | > 10 µM | > 10 µM | > 25 µM
Cc1nc(-c2cc(Cl)oc2C)c(C(=O)NC(Cc2ccccc2)C(=O)C(N)=O)o1 (centres unmarked) [Compound 98, N-(4-AMINO-3,4-DIOXO-1-PHENYLBUTAN-2-YL)-4-(5-CHLORO-2-METHYLFURAN-3-YL)-2-METHYLOXAZOLE-5-CARBOXAMIDE] | 10 to 25 µM | < 3 µM | < 3 µM | < 3 µM | < 10 µM

Now from value to compound:

IC50 [1] | IC50 (Human Calpain 2/NS1) | IC50 (Human Calpain 9/NS1) | IC50 (Human Calpain 1/NS1) | IC50 [2] | Compound
10 to 25 µM | < 3 µM | < 3 µM | < 3 µM | < 10 µM | Cn1cc(C(=O)NC(Cc2ccccc2)C(=O)C(N)=O)c(-c2cc(Cl)oc2Cl)n1 (centres unmarked) [Compound 15, N-(4-AMINO-3,4-DIOXO-1-PHENYLBUTAN-2-YL)-3-(2,5-DICHLOROFURAN-3-YL)-1-METHYL-1H-PYRAZOLE-4-CARBOXAMIDE]
< 10 µM | < 3 µM | < 3 µM | < 3 µM | > 25 µM | Cn1cc(C(=O)NC(Cc2ccccc2)C(=O)C(N)=O)c(-c2cccc3sccc23)n1 (centres unmarked) [Compound 102, N-(4-AMINO-3,4-DIOXO-1-PHENYLBUTAN-2-YL)-3-(BENZO[b]THIOPHEN-4-YL)-1-METHYL-1H-PYRAZOLE-4-CARBOXAMIDE]
> 25 µM | < 3 µM | < 3 µM | < 3 µM | 10 to 25 µM | Cn1cc(C(=O)NC(Cc2ccccc2)C(=O)C(N)=O)c(-c2ncnc3ccccc23)n1 (centres unmarked) [Compound 49, N-(4-AMINO-3,4-DIOXO-1-PHENYLBUTAN-2-YL)-1-METHYL-3-(QUINAZOLIN-4-YL)-1H-PYRAZOLE-4-CARBOXAMIDE]
> 25 µM | 3 to 10 µM | 3 to 10 µM | > 10 µM | < 10 µM | Cc1cc(C(=O)NC(Cc2ccccc2)C(=O)C(N)=O)nn1-c1ncc2ccccc2n1 (centres unmarked) [Compound 27, N-(4-AMINO-3,4-DIOXO-1-PHENYLBUTAN-2-YL)-5-METHYL-1-(QUINAZOLIN-2-YL)-1H-PYRAZOLE-3-CARBOXAMIDE]
> 25 µM | < 3 µM | < 3 µM | < 3 µM | < 10 µM | Cn1cc(C(=O)NC(Cc2ccccc2)C(=O)C(N)=O)c(-c2ccoc2Cl)n1 (centres unmarked) [Compound 19, N-(4-AMINO-3,4-DIOXO-1-PHENYLBUTAN-2-YL)-3-(2-CHLOROFURAN-3-YL)-1-METHYL-1H-PYRAZOLE-4-CARBOXAMIDE]
< 10 µM | < 3 µM | < 3 µM | < 3 µM | < 10 µM | Cn1cc(C(=O)NC(Cc2ccccc2)C(=O)C(N)=O)c(-c2cccc3ncoc23)n1 (centres unmarked) [Compound 31, N-(4-AMINO-3,4-DIOXO-1-PHENYLBUTAN-2-YL)-3-(BENZO[D]OXAZOL-7-YL)-1-METHYL-1H-PYRAZOLE-4-CARBOXAMIDE]
< 10 µM | < 3 µM | < 3 µM | < 3 µM | 10 to 25 µM | Cn1cc(C(=O)NC(Cc2ccccc2)C(=O)C(N)=O)c(-c2cccc3ccsc23)n1 (centres unmarked) [Compound 101, N-(4-AMINO-3,4-DIOXO-1-PHENYLBUTAN-2-YL)-3-(BENZO[b]THIOPHEN-7-YL)-1-METHYL-1H-PYRAZOLE-4-CARBOXAMIDE]
> 25 µM | < 3 µM | < 3 µM | < 3 µM | > 25 µM | Cn1cc(C(=O)NC(Cc2ccccc2)C(=O)C(N)=O)c(-c2cccc3cccnc23)n1 (centres unmarked) [Compound 14]
> 25 µM | < 3 µM | < 3 µM | < 3 µM | < 10 µM | NC(=O)C(=O)C(Cc1ccccc1)NC(=O)c1cn(C(F)F)nc1-c1nccc2ccccc12 (centres unmarked) [Compound 4, N-(4-AMINO-3,4-DIOXO-1-PHENYLBUTAN-2-YL)-1-(DIFLUOROMETHYL)-3-(ISOQUINOLIN-1-YL)-1H-PYRAZOLE-4-CARBOXAMIDE]
